Measured values: PMC6271978, “1H-2,3-Dihydroperimidine Derivatives: A New Class of Potent Protein Tyrosine Phosphatase 1B Inhibitors” (Molecules, 2013)

Experiments:
[1] = target: T1, PTP1B (GST-PTP1B) (Homo sapiens, UniProt P18031); test: PTP1B inhibition, colorimetric pNPP assay; type: biochemical; settings: pNPP substrate
T1 sequence (P18031 1-435): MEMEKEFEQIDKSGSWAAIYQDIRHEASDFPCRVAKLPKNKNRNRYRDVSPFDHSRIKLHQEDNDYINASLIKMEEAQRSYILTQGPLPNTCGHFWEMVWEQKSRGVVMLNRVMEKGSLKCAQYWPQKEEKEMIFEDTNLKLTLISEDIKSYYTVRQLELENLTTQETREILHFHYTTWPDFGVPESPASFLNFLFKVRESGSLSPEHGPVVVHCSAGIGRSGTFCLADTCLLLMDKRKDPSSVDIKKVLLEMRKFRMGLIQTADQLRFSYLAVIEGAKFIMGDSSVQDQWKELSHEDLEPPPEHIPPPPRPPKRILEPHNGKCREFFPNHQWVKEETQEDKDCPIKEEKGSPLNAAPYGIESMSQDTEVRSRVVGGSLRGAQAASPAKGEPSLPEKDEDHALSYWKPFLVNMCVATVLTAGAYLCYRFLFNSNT

[2] = target: T2, TCPTP (GST-TCPTP) (Homo sapiens, UniProt P17706); test: TCPTP inhibition, colorimetric pNPP assay; type: biochemical
T2 sequence (P17706 1-415): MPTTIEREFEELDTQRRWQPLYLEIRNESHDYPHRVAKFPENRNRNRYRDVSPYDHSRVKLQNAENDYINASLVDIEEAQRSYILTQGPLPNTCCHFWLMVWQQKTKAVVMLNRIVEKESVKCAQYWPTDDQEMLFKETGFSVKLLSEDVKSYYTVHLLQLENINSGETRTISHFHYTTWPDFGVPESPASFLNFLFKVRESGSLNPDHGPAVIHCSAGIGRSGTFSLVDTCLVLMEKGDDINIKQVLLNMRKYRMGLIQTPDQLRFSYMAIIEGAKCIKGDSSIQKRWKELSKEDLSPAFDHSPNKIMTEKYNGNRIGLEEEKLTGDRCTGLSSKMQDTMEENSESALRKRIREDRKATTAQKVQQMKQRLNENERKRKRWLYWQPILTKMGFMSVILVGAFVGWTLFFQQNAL
Method: (§1) In addition to potency improvements, we investigated the selectivity of three representative compounds, namely, 1, 46 and 49 against other PTPs (TCPTP, SHP-1, SHP-2, LAR). […] Besides TCPTP, we tested the inhibitory activity of these compounds on other three homogenous enzymes SHP-1, SHP-2, and LAR [25].
(§2) A colorimetric assay to measure inhibition against PTP1B and TCPTP was performed in 96-well plates. Briefly, the tested compounds were solubilized in DMSO and serially diluted into concentrations for the inhibitory test. The assays were carried out in a final volume of 100 μL containing 50 mmol/L MOPS, pH 6.5, 2 mmol/L pNPP, 30 nmol/L GST-PTP1B or GST-TCPTP,and 2% DMSO, and the catalysis of pNPP was continuously monitored on a SpectraMax 340 microplate reader at 405 nm for 3 min at 30 °C. The IC50 value was calculated from the nonlinear curve fitting of the percent inhibition [inhibition (%)] vs. the inhibitor concentration using the Equation (1): Inhibition (%) = 100/[1 + (IC50/[I]k)] (1) where k is the Hill coefficient. To study the inhibition on the other PTPase family members, SHP1, SHP2 and LAR were prepared and assays were performed according to procedures described previously. Briefly, the enzymatic activity of the SHP1, SHP2 and LARwere determined at 30 °C by monitoring the dephosphorylation of substrate 3-o-methylfluorescein phosphate (OMFP), product was then detected at a 485 nm excitation wavelength and 530 nm emission wavelength by the EnVision multilabe plate reader (Perkin-Elmer Life Sciences, Boston, MA, USA). The assays were carried out in a final volume of 50 μL containing 50 mmol/L MOPS, pH 6.8, 10 μmol/L OMFP, 20 nmol/L recombinant enzyme, 2 mmol/L dithiothreitol , 1 mmol/L EDTA, and 2% DMSO. The initial rate of the dephosphorylation was presented by the early linear region of the enzymatic reaction kinetic curve, the inhibitory activity of the compound was continuously monitored.

[3] = target: T3, SHP-1 (Homo sapiens, UniProt P29350); test: SHP-1 inhibition, OMFP substrate assay; type: biochemical
T3 construct: made in house
T3 sequence (P29350 whole entry): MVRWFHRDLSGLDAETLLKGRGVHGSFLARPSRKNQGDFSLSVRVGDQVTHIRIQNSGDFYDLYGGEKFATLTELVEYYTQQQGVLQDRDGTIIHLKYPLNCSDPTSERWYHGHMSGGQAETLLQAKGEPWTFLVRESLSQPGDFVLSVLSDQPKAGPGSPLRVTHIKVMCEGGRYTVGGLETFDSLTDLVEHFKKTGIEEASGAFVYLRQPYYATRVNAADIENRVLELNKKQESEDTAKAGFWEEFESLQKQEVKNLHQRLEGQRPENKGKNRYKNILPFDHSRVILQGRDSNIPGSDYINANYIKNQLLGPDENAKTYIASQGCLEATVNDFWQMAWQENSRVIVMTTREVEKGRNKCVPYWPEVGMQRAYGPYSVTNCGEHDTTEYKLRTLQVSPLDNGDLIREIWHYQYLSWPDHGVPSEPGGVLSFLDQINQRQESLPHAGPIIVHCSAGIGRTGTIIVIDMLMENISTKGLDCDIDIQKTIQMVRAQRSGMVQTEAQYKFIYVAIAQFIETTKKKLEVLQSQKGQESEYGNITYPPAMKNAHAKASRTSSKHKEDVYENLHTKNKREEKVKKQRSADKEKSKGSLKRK
Method: as §1, §2

[4] = test system: tyrosine phosphorylation of insulin receptor β in CHO/hIR cells; test: Tyrosine phosphorylation of insulin receptor in CHO/hIR cells (Western blot); type: cell-based, hamster CHO cells expressing human insulin receptor; settings: compound 5 µM to 20 µM for 3 h, insulin 10 nM 10 min, versus DMSO
Method: To explore the effect of PTP1B inhibitor in vitro on insulin signaling, CHO cells overexpressing human insulin receptor (CHO/hIR) were treated in presence or absence of compound, then tyrosine phosphorylation level of insulin receptor (p-IR) was detected after stimulated by insulin.
CHO/hIR cells were cultured in F12 nutrient medium including 10% (V/V) FBS, 100 units/mL penicillin and 100 μg/mL streptomycin with 5% CO2 at 37 °C. Cells were serum free starved for 2 h, and then treated with compounds for 3 h, followed with insulin (10 nM, Eli Lilly) for 10 min before harvested. Cells were rinsed twice with precooled 1× PBS and then lysed with 1× SDS loading buffer. Samples were heated at 100 °C for 15 min before electrophoresed with 8% SDS-polyarylamide gel under 80 to 120 volt voltage, and then transferred to nitrocellulose (NC) membranes. NC membranes were blocked for 2 h with 5% BSA (W/V) dissolved in TBST. The membranes incubated with primary antibodies overnight at 4 °C and secondary antibodies for 1 h at room temperature. The primary antibody p-Tyr (PY20) used was from Santa Cruz (Dallas, CA, USA) and β-actin from Sigma (St. Louis, MO, USA), secondary antibody was from Jackson Immuno Research (Philadelphia, PA, USA).

[5] = means ± SD of three replications, OA/PC = oleanolic acid positive control

`O=C(O)CNC(=O)c1ccc(C2Nc3cccc4cccc(c34)N2)nc1` [Compound 46] was tested, and the inhibition at 20 µg/mL ([1]; PTP1B, compound at 20 μg/mL) was 99.5%, the IC50 [1, 5] was 660 ± 30 nM and the “IC50 PTP1B” value [1, 5] was “submicromolar”. For the same compound, the IC50 ([2]; pNPP substrate, means ± SD of three replications, PC = oleanolic acid) was 2300 ± 170 nM, the “TCPTP/PTP1B (selectivity, fold)” value ([2]; ratio of IC50 TCPTP to IC50 PTP1B) was 3.48 and the IC50 ([3]; OMFP substrate, means ± SD of three replications, PC = Na3VO4) was 6010 ± 200 nM. For the same compound, the “selectivity for PTP1B over SHP-1” value ([3]; from IC50 values) was “about 9 fold” and the “tyrosine phosphorylation level of insulin receptor (p-IR)” value [4] was “greatly improved p-IR level”.
